“Also recorded” adds a separate entry of the source.
Key:
[1] = system: Lewis lung tumours; experiment: Tumour growth, oral administration in water; type: in vivo, C57Bl6/J mice; conditions: ~10 mg per kg per day in water
Method: (§1) FIG. 28. Inhibition of human pancreatic carcinoma and murine Lewis lung tumour growth by oral administration of GSAO. BxPC-3 or Lewis lung tumours were established in the proximal midline of female 7 to 9 week old SCID or C57Bl6/J mice, respectively, SCID mice bearing ˜0.5 g BxPC-3 tumours or C57Bl6/J mice bearing 0.1 g Lewis lung tumours were randomised into two groups (n=2 for BxPC-3 and n=3 for Lewis lung) and treated with either GSAA or GSAO (0.05 mg per mL) in their water. Mice drink ˜5 mL of water per day and therefore consumed ˜10 mg GSAO or GSM per kg per day. The water contained 100 mM glycine to minimise oxidation of GSAO. Tumour volume and animal weight was measured every 3 days. The data points and errors represent the mean and SE of the tumour volumes.
(§2) SCID mice bearing subcutaneous human pancreatic carcinoma tumours or C57Bl6/J mice bearing subcutaneous murine Lewis lung tumours were fed either ˜10 mg per kg per day GSAO or GSAA in their water.

[2] = system: HT1080; experiment: Proliferation of cultured cells, 72 hr; type: cell-based, human; conditions: 5% FCS, 0 to 1 mM
Method: (§3) FIG. 19. Effect of GSAO on proliferation of non-endothelial cells. 15,000 BxPC-3 (part A), HT1080 (part B), 3T3 (part C) or BVSM (part D) cells per well were seeded into gelatinised 24-well culture plates and allowed to attach for 24 hr. The media was then replaced with DMEM containing 0 to 1 mM GSAO or GSAA and either 5% BCS (part D) or 5% FCS (parts A, B and C). Cells were cultured for 72 hr and then dispersed and counted. The dotted lines indicate the cell number in control wells containing DMEM and 2% BCS (part D) or 2% FCS (parts A, B and C) which represented no to limited proliferation. The data points and errors represent the mean and range of duplicate wells.
(§4) BCE (Folkman et al. 1979), BAE, BxPC-3 (ATCC, Bethesda, Md.), HT1080 (Jiang et al., 1999), 3T3 (ATCC, Bethesda, Md.) and BVSM (Hogg et al., 1997) cells were harvested and cultured as indicated. Cells (0.5 mL of 30,000 or 100,000 cells per mL) were seeded into gelatinized 24-well culture plates (Corning Costar, Corning, N.Y.) in Dulbecco's Modified Eagle's Medium (DMEM, JHR Bioscience, Lenexa, Kans.) containing 10% fetal calf serum (FCS, Intergen Comp., Purchase, N.Y.) and 1% Glutamine Pen-Strep (GPS, Irvine Scientific, Santa Ana, Va.) and allowed to attach for 24 hr in 10% CO2 at 37° C. The media was then replaced with DMEM and 1% GPS containing 0 to 1 mM GSAO or GSAA and either 5% bovine calf serum (BCS, HyClone, Logan, Utah) and 1 ng per mL FGF-2 (Genzyme, Cambridge, Mass.) or 5% BCS and 10 ng per mL VEGF (Genzyme, Cambridge, Mass.) for BCE cells, 5% or 10% BCS for BAE cells, 5% BCS for BVSM cells, and 5% FCS for BxPC-3, HT1080 and 3T3 cells. Cells were cultured for 0 to 72 hr in 10% CO2 at 37° C. then dispersed in trypsin/EDTA (GibcoBRL, Granc Island, N.Y.), resuspended in Coulter balanced electrolyte solution and counted with a Z1 Coulter counter (Coulter Corp., Miami, Fla.) in all experiments there were two control wells containing DMEM with 1% GPS and either 5% BCS for BCE cells, 2% BCS for BAE and BVSM cells, or 2% FCS for BxPC-3, HT1080 and 3T3 cells. These wells represented no to limited proliferation.

[3] = system: BxPc3; experiment: Proliferation of cultured cells, 72 hr; type: cell-based, human; conditions: 5% FCS, 0 to 1 mM
Method: as §3, §4

[4] = system: BxPC-3 tumours; experiment: Histological analysis of BxPC-3 tumours (CD-31, PCNA, TUNEL); type: in vivo, SCID mice; conditions: for necrosis of treated tumours: not shown
Method: FIG. 26. Inhibition of angiogenesis in human pancreatic tumours by GSAO. Histological sections of the BxPC-3 tumours shown in part C of FIG. 23 from GSAA and GSAO-treated mice were analysed for angiogenesis (CD-31), proliferation (PCNA) and apoptosis (TUNEL).
The tumours shown in FIG. 23C were fixed in Buffered Formalde-Fresh (Fisher Scientific, Fair Lawn, N.J.), embedded in paraffin and […] sections were cut and placed on glass slides. Sections were stained with haematoxylin and eosin or for CD31, PCNA or fragmented DNA (TUNEL). Sections were incubated overnight at 4° C. with a […] of anti-mouse CD-31 antibody (PharMingen, San Diego, Calif.) followed by a 1:200 dilution of biotinylated anti-rat secondary antibody (Vestor, Burlingame, Calif.). The staining was enhanced by tyramide amplification (New England Nuclear, Boston, Mass.). Staining for PCNA was performed as described by Holmgren et al. (1995) while TUNEL labeling of fragmented DNA was performed according to Gavrielli et al. (1992).
Vascular density was determined by selecting 3 tumours, including the smallest and largest, from the control and treatment groups. […] The highest of the three counts was the value taken and two sections from each tumour was examined. The proliferative index was estimated by the percentage of cells scored under 400× magnification (Holmgren et al., 1995). A minimum of 1000 cells was counted in two separate sections. The apoptotic index was estimated by the percentage of cells scored under 400× magnification. A minimum of 1500 cells was counted in two separate sections (Holmgren et al., 1995).

[5] = system: 3T3; experiment: Viability of cultured cells, 72 hr; type: cell-based, murine; conditions: 0 to 1 mM
Method: as §3
(§5) BCE (Folkman et al. 1979), BAE, BxPC-3 (ATCC, Bethesda, Md.), HT1080 (Jiang et al., 1999), 3T3 (ATCC, Bethesda, Md.) and BVSM (Hogg et al., 1997) cells were harvested and cultured as indicated. […] Cells were cultured for 0 to 72 hr in 10% CO2 at 37° C. then dispersed in trypsin/EDTA (GibcoBRL, Granc Island, N.Y.), resuspended in Coulter balanced electrolyte solution and counted with a Z1 Coulter counter (Coulter Corp., Miami, Fla.) in all experiments there were two control wells containing DMEM with 1% GPS and either 5% BCS for BCE cells, 2% BCS for BAE and BVSM cells, or 2% FCS for BxPC-3, HT1080 and 3T3 cells. […]

[6] = system: BxPC-3 tumours; experiment: Tumour growth, oral administration in water; type: in vivo, SCID mice; conditions: ~10 mg per kg per day in water
Method: as §1, §2

[7] = system: BVSM; experiment: Proliferation of cultured cells, 72 hr; type: cell-based, bovine; conditions: 5% BCS, 0 to 1 mM
Method: as §3, §5

N[C@@H](CCC(=O)N[C@@H](CSCC(=O)Nc1ccc([As](=O)(O)O)cc1)C(=O)NCC(=O)O)C(=O)O [GSAA, 4-(N-(S-glutathionylacetyl)amino)phenylarsonic acid, reference compound]
reduction of the rate of Lewis lung tumour growth [1]: no significant effect | Proliferation IC50 [2]: no significant effect | Proliferation IC50 [3]: no significant effect | necrosis of treated tumours [4]: no macroscopic or microscopic signs of necrosis | Viability IC50 ([5]; 5% FCS): no significant effect | growth of pancreatic tumours [6]: no significant effect | Proliferation IC50 [7]: no significant effect

NC(CCC(=O)NC(CSCC(=O)Nc1ccc([As]=O)cc1)C(=O)NCC(=O)O)C(=O)O (centres unmarked) [GSAO, 4-(N-(S-glutathionylacetyl)amino)-phenylarsenoxide]
reduction of the rate of Lewis lung tumour growth [1]: ~50% | Proliferation IC50 [2]: did not affect the proliferation | Proliferation IC50 [3]: did not affect the proliferation | proliferative index of tumour cells (PCNA) ([4]; GSAO- vs GSAA-treated): no significant difference | tumour angiogenesis (CD-31) ([4]; GSAO- vs GSAA-treated, 10 mg per kg per day, day 31, p<0.001): marked suppression of angiogenesis; also recorded: marked reduction in angiogenesis | apoptotic index of tumour cells (TUNEL) ([4]; GSAO- vs GSAA-treated, p=0.05): increase in the apoptotic index | necrosis of treated tumours [4]: no macroscopic or microscopic signs of necrosis | IC50 ([5]; Mus musculus, NIH3T3, 5% FCS): ~40 µM | growth of pancreatic tumours [6]: stopped growing | Proliferation IC50 [7]: did not affect the proliferation
